The values that follow come from patent US9371265B2, “Compositions and methods related to inhibitors of JAK kinase” (EP PHARMA, INC., priority 2012, dated 2016).

The subject of one experiment is CD30. Briefly: CD30 cell surface expression in SU-DHL-1 cells (flow cytometry). Format: cell-based, human. The following applies: 24 hours. An excerpt: FIGS. 6A-6B. EP009 treatment disrupts constitutive JAK3/STAT3 pathway activation and down-regulates CD30 cell surface expression in human ALCL cells. (A) Kit225 (lane a), SUP-M2 (lane b), Karpas299 (lane c), DEL (lane d) and SU-DHL-1 (lane e) total cell lysates were separated by 7.5% SDS-PAGE (upper panel) or were immunoprecipitated (IP) with JAK3 antibodies (lower panel) and separated on 7.5% SDS-PAGE, and then subjected to Western blot (WB) analysis with the indicated antibodies. (B) SU-DHL-1 cells were treated with vehicle (PBS; lane a) or increasing amounts of EP009 (0-40 μM; lanes b-e) for 12 hours. Cells were then lysed, clarified, and immunoprecipitated (IP) with anti-JAK3 (α-JAK3), and subjected to Western blot (WB) analysis with anti-phosphotyrosine (α-pY). […] Values represent pSTAT mean fluorescence intensity (MFI) normalized to corresponding GAPDH MFI, while error bars represent the standard deviation (n=2). Statistical significance was determined using Student's t-test. […] Cells were then analyzed by flow cytometry for CD30 expression. […]
Cells were treated in the absence or presence of the indicated concentrations of EP009 for 24 hours, and stained with FITC-labeled mouse anti-human CD30 (Millipore). Stained cells were analyzed by flow cytometry (Cytomics FC500, Beckman Coulter) and quantitated with CXP analysis software version 2.2 (Beckman Coulter) as previously described.24
On the technique in general: In flow cytometry, cells or beads pass a laser one at a time.

The target of a further experiment is ACVR1B (Homo sapiens, UniProt P36896). Briefly: Kinase panel: ACVR1B. The experiment is classed as biochemical. To be noted: 10 μM EP009. The protocol: (§1) Achieving JAK3 selectivity remains a significant challenge in the development of new small molecules for the treatment of cancer and immune-derived diseases. As such, the inventors employed cell-based screening assays of small-molecule libraries based upon the chemical scaffold of the established JAK3 inhibitor NC1153 (Stepkowski et al., J Immunol. (2005), 175(7):4236-4246) EP009 (FIG. 2A) was selected as a lead compound due to improved intrinsic stability (>95% purity in various solvents at 37° C. for 24 hours; FIG. 3) and high-degree of JAK3 selectivity. To test JAK3 versus JAK2 specificity of EP009, the IL-2/JAK3-dependent Kit225, and IL-3/JAK2-dependent BaF/3 cell lines were used. Kit225 and BaF/3 cells growing in the presence of IL-2 or IL-3, respectively, were treated with ascending concentrations of EP009 for 12 hours and cellular JAK3 and JAK2 tyrosine phosphorylation levels detected by Western blot analysis (FIGS. 2B and 2C). Following densitometric analysis, EP009 was determined to dose-dependently reduce IL-2-mediated JAK3 tyrosine phosphorylation with a cellular 50% inhibitory concentration (IC50) between 10 and 20 μM (FIG. 2B). […] To globally evaluate specificity, the inhibitory activity of EP009 was measured against a panel of protein kinases distributed throughout the kinome using the scanEDGE profiling service (KINOMEscan). […]
Chain of ACVR1B (P36896 24-505): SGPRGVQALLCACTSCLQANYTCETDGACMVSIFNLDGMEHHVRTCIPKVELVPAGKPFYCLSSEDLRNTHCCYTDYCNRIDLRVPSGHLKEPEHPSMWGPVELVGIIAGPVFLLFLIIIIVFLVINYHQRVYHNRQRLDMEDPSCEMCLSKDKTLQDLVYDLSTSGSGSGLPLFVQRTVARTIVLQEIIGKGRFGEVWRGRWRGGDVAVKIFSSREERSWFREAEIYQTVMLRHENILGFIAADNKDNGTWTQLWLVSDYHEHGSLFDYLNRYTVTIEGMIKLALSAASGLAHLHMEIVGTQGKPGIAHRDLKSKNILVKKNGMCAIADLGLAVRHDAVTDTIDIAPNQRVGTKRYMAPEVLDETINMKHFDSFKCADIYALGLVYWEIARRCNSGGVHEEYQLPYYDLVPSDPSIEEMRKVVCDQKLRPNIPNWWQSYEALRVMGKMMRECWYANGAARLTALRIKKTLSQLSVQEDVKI

Another experiment deals with EGFR (Homo sapiens, UniProt P00533). Briefly: Kinase panel: EGFR. Format: biochemical. The following applies: 10 μM EP009. The protocol:
as §1

The next experiment concerns the target ERBB4 (Homo sapiens, UniProt Q15303). Briefly: Kinase panel: ERBB4. The following applies: 10 μM EP009. Format: biochemical. The protocol:
as §1

The next experiment deals with PAK2 (Homo sapiens, UniProt Q13177). In words: Kinase panel: PAK2. Format: biochemical. To be noted: 10 μM EP009. The procedure:
as §1

The target of the next experiment is PCTK1 (Homo sapiens, UniProt Q00536). In words: Kinase panel: PCTK1. Format: biochemical. To be noted: 10 μM EP009. The procedure:
as §1

The next experiment has as its target PDGFRB (Homo sapiens, UniProt P09619). Briefly: Kinase panel: PDGFRB. The experiment is classed as biochemical. To be noted: 10 μM EP009. The protocol: as §1

Each structure is given as a SMILES string.

Chain of PCTK1 (Q00536 whole entry): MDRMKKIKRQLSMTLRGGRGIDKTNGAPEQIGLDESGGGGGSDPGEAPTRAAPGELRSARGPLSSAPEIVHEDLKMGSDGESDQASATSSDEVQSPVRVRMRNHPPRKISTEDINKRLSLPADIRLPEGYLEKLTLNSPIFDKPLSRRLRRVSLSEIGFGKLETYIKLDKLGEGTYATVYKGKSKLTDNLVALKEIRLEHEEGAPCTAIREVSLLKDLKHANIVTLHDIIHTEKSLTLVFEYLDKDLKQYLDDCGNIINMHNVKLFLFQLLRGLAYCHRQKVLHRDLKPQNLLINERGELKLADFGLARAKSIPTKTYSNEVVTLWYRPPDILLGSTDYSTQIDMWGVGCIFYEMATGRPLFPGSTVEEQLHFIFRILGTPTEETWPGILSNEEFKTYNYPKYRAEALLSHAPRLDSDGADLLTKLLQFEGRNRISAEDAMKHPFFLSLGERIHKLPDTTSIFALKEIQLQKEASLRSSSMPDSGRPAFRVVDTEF
Chain of PDGFRB (P09619 33-1106): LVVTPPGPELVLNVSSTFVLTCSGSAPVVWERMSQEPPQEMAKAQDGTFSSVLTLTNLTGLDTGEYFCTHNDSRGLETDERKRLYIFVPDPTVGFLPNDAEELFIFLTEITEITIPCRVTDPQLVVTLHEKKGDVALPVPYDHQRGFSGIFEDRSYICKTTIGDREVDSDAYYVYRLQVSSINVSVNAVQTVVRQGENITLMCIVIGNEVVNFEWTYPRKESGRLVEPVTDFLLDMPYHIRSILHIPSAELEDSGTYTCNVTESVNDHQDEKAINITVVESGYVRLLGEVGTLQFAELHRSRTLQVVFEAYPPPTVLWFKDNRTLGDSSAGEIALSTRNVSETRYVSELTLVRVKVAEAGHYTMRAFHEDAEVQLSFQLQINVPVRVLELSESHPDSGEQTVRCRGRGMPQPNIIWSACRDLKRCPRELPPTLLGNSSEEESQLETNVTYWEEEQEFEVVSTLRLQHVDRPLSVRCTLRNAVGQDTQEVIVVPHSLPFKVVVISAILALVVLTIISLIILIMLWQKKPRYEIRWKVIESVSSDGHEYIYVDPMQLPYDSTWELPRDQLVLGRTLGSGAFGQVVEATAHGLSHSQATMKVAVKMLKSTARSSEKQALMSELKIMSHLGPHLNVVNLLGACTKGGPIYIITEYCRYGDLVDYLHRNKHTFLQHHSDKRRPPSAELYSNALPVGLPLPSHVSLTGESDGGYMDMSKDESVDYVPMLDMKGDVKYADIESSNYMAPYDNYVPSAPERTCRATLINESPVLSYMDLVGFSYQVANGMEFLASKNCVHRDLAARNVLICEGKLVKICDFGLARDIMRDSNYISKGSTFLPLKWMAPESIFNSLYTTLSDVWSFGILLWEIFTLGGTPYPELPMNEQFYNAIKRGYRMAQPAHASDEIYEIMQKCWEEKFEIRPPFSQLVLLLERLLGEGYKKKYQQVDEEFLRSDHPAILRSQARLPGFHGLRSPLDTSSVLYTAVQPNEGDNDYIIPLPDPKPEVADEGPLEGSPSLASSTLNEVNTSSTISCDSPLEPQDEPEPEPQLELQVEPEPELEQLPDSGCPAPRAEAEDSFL
Chain of ERBB4 (Q15303 26-1308): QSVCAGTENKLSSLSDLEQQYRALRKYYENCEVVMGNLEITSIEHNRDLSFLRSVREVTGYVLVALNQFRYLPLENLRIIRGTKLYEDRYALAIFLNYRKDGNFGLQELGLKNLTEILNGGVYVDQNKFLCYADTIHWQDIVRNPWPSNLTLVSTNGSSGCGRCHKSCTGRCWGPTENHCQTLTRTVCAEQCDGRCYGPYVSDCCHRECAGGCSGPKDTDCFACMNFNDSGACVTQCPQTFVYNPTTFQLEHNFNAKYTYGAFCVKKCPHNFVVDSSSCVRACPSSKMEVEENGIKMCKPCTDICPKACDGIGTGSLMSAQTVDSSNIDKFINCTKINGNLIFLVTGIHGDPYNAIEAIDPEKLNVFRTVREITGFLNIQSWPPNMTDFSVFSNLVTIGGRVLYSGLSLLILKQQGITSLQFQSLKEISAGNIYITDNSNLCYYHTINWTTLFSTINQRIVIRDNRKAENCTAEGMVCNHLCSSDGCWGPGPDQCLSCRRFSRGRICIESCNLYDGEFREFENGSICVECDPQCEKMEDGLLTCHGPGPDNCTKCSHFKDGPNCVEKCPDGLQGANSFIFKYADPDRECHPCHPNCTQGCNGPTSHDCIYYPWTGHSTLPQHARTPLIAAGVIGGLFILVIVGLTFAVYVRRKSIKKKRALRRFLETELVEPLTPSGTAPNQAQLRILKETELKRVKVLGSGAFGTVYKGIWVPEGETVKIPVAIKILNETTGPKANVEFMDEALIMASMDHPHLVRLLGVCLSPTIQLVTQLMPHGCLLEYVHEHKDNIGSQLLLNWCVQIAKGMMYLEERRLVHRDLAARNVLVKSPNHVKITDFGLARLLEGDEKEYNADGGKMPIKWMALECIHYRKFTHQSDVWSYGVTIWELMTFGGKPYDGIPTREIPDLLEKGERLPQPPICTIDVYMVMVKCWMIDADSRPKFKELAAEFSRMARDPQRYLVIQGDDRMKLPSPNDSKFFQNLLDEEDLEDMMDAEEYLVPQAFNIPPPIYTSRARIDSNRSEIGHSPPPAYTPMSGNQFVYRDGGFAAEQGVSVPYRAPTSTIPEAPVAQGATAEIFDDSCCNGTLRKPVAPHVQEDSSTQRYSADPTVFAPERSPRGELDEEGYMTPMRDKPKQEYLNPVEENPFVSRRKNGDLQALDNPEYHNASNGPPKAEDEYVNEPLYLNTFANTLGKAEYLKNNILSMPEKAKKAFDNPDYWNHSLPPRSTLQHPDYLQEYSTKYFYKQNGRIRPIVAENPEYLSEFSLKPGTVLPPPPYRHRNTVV
Chain of EGFR (P00533 25-1210): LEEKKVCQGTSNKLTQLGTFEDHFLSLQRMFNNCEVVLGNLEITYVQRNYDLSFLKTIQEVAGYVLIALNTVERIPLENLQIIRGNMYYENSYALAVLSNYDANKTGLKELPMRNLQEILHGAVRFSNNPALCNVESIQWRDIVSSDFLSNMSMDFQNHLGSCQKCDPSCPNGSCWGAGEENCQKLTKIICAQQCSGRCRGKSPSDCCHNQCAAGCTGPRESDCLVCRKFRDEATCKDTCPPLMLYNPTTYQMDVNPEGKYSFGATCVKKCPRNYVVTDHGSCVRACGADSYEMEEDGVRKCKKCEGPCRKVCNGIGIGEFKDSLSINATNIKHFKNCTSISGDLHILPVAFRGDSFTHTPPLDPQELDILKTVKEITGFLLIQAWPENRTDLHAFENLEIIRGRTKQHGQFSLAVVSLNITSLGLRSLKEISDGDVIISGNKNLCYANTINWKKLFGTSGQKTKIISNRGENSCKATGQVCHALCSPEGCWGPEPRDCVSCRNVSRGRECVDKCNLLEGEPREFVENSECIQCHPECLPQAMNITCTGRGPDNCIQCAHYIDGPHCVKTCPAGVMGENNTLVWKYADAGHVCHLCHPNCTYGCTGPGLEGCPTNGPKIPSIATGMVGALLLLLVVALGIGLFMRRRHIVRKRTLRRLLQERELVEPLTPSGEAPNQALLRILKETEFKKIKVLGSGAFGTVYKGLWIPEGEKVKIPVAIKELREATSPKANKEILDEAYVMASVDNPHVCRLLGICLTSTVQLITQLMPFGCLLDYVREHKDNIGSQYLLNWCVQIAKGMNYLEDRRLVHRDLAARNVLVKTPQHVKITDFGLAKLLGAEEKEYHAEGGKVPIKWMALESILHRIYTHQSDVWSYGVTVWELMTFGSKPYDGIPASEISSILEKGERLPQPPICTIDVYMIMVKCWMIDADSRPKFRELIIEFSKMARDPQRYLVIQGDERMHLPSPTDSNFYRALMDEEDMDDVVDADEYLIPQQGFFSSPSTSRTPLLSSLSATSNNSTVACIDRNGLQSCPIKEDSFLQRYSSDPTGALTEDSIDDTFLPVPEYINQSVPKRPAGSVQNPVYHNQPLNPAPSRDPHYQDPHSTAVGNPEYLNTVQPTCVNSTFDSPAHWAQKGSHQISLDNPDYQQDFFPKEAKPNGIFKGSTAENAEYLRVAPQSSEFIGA
Chain of PAK2 (Q13177 whole entry): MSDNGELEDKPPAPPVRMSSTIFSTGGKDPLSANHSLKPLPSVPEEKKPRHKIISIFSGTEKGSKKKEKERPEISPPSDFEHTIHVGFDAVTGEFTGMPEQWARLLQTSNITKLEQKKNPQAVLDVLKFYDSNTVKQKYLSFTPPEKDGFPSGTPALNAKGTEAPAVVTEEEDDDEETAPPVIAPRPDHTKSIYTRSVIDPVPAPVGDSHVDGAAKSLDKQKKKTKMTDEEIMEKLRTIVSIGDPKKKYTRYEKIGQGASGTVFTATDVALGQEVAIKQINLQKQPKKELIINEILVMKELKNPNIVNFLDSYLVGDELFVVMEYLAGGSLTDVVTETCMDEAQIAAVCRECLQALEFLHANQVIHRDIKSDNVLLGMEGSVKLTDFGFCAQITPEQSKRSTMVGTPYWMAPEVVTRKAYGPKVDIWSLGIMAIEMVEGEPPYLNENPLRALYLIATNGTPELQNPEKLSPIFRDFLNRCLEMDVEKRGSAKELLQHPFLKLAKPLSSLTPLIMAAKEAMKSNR

With `C=C1CCCCCCCCCC(CO)C1=O` (stereo not shown) [EP009, 2-(Hydroxymethyl)-12-methylenecyclododecanone], the “effect on CD30 surface expression” value in the experiment with CD30 is given as “dose-dependent CD30 down-regulation”. Also, the “Kinase Activity (% of Control)” value at ACVR1B is given as 96 % of Control; at EGFR, 100 % of Control; at ERBB4 it was 91 % of Control; at PAK2, 100 % of Control; at PCTK1 it was 85 % of Control; on PDGFRB, 100 % of Control.
